The values that follow are results of earlier work, collected in US20080175905A1, “ESTROGEN/SERM AND ESTROGEN/PROGESTIN BI-LAYER TABLETS” (Wyeth, priority 2006, published 2008).

For one data set, the system named is uterine response. Particulars: preclinical models of uterine stimulation.
Data set [1] deals with ovariectomized rat model of osteopenia.
Data set [2] deals with MCF-7 cell line (human breast cancer cell line). The conditions noted are these: MCF-7 human breast cancer cell line.

`Cc1c(-c2ccc(O)cc2)n(Cc2ccc(OCCN3CCCCCC3)cc2)c2ccc(O)cc12` [bazedoxifene acetate, 1-[4-(2-azepan-1-yl-ethoxy)-benzyl]-2-(4-hydroxy-phenyl)-3-methyl-1H-indol-5-ol acetic acid]: in the data set with uterine response, the “stimulation of uterine response” value is “little or no stimulation of uterine response”. Further, in data set [1], the preventing bone loss entry is on record as “estrogen agonist-like effect” and the reducing cholesterol entry is “estrogen agonist-like effect”. The “estrogen antagonist behaviour in MCF-7 cell line” value in data set [2] is “behaves as an estrogen antagonist”.
